Test results reported in ChEMBL document CHEMBL1201862, “PubChem BioAssay data set” (2004).
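Tested at 5 concentrations; 48 h exposure; 96-well plates; endpoints linearly interpolated, else capped at highest concentration. GI50 marks 50% less growth.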 Active and inactive are the calls of the source. Rule as the data show it: active = GI50 up to about 1.1 µM and inactive = higher.

Legend:
Experiment in all cases: NCI-60 cell line screen, 48 h
786-0 = test system: 786-0
A498 = test system: A498
A549 = test system: A549
ACHN = test system: ACHN
CAKI-1 = test system: CAKI-1
CCRF-CEM = test system: CCRF-CEM
COLO 205 = test system: COLO 205
DU-145 = test system: DU-145
EKVX = test system: EKVX
HCT-116 = test system: HCT-116
HCT-15 = test system: HCT-15
HL-60 = test system: HL-60
HOP-62 = test system: HOP-62
HOP-92 = test system: HOP-92
HT-29 = test system: HT-29
Hs-578T = test system: Hs-578T
IGROV-1 = test system: IGROV-1
K562 = test system: K562
LOX IMVI = test system: LOX IMVI
M14 = test system: M14
MCF7 = test system: MCF7
MDA-MB-231 = test system: MDA-MB-231
MDA-MB-435 = test system: MDA-MB-435
MDA-N = test system: MDA-N
MOLT-4 = test system: MOLT-4
Malme-3M = test system: Malme-3M
NCI-H226 = test system: NCI-H226
NCI-H23 = test system: NCI-H23
NCI-H522 = test system: NCI-H522
NCI/ADR-RES = test system: NCI/ADR-RES
OVCAR-3 = test system: OVCAR-3
OVCAR-4 = test system: OVCAR-4
OVCAR-5 = test system: OVCAR-5
OVCAR-8 = test system: OVCAR-8
RPMI-8226 = test system: RPMI-8226
RXF 393 = test system: RXF 393
SF-268 = test system: SF-268
SF-295 = test system: SF-295
SF-539 = test system: SF-539
SK-MEL-2 = test system: SK-MEL-2
SK-MEL-5 = test system: SK-MEL-5
SK-OV-3 = test system: SK-OV-3
SN12C = test system: SN12C
SNB-19 = test system: SNB-19
SNB-75 = test system: SNB-75
SR = test system: SR
SW-620 = test system: SW-620
T47D = test system: T47D
TK-10 = test system: TK-10
U-251 = test system: U-251
UACC-257 = test system: UACC-257
UACC-62 = test system: UACC-62
UO-31 = test system: UO-31
HCC 2998 = test system: HCC 2998
KM12 = test system: KM12
NCI-H460 = test system: NCI-H460
PC-3 = test system: PC-3
SK-MEL-28 = test system: SK-MEL-28

Structure (SMILES): CN1CCN(C2=C(Cl)C3(OCCS3)C(F)(F)C2(F)F)CC1 (stereo not given)
- GI50 (786-0): > 100 µM (inactive)
- GI50 (A498): > 100 µM (inactive)
- GI50 (A549): 95.9 µM (inactive)
- GI50 (ACHN): > 100 µM (inactive)
- GI50 (CAKI-1): > 100 µM (inactive)
- GI50 (CCRF-CEM): > 100 µM (inactive)
- GI50 (COLO 205): 43.4 µM (inactive)
- GI50 (DU-145): > 100 µM (inactive)
- GI50 (EKVX): > 100 µM (inactive)
- GI50 (HCT-116): > 100 µM (inactive)
- GI50 (HCT-15): 79.6 µM
- GI50 (HL-60): 64.4 µM (inactive)
- GI50 (HOP-62): 46.9 µM (inactive)
- GI50 (HOP-92): 66.5 µM (inactive)
- GI50 (HT-29): 39.4 µM (inactive)
- GI50 (Hs-578T): > 100 µM (inactive)
- GI50 (IGROV-1): > 100 µM (inactive)
- GI50 (K562): 29.8 µM (inactive)
- GI50 (LOX IMVI): 56 µM (inactive)
- GI50 (M14): > 100 µM (inactive)
- GI50 (MCF7): > 100 µM (inactive)
- GI50 (MDA-MB-231): 82 µM (inactive)
- GI50 (MDA-MB-435): > 100 µM (inactive)
- GI50 (MDA-N): > 100 µM (inactive)
- GI50 (MOLT-4): 45.4 µM (inactive)
- GI50 (Malme-3M): > 100 µM (inactive)
- GI50 (NCI-H226): > 100 µM (inactive)
- GI50 (NCI-H23): 27.1 µM (inactive)
- GI50 (NCI-H522): > 100 µM (inactive)
- GI50 (NCI/ADR-RES): 79.6 µM (inactive)
- GI50 (OVCAR-3): 57 µM (inactive)
- GI50 (OVCAR-4): > 100 µM (inactive)
- GI50 (OVCAR-5): > 100 µM (inactive)
- GI50 (OVCAR-8): > 100 µM (inactive)
- GI50 (RPMI-8226): 44.5 µM (inactive)
- GI50 (RXF 393): > 100 µM (inactive)
- GI50 (SF-268): > 100 µM (inactive)
- GI50 (SF-295): 48.2 µM (inactive)
- GI50 (SF-539): > 100 µM (inactive)
- GI50 (SK-MEL-2): > 100 µM (inactive)
- GI50 (SK-MEL-5): 16.6 µM (inactive)
- GI50 (SK-OV-3): > 100 µM (inactive)
- GI50 (SN12C): > 100 µM (inactive)
- GI50 (SNB-19): > 100 µM (inactive)
- GI50 (SNB-75): 51.3 µM (inactive)
- GI50 (SR): > 100 µM (inactive)
- GI50 (SW-620): > 100 µM (inactive)
- GI50 (T47D): 9.35 µM (inactive)
- GI50 (TK-10): > 100 µM (inactive)
- GI50 (U-251): 39.8 µM (inactive)
- GI50 (UACC-257): 27.2 µM (inactive)
- GI50 (UACC-62): > 100 µM (inactive)
- GI50 (UO-31): 55 µM (inactive)

Structure (SMILES): O=[N+]([O-])c1ccc2[nH]nc(OCc3ccccn3)c2c1
- GI50 (786-0): > 100 µM (inactive)
- GI50 (A498): > 100 µM (inactive)
- GI50 (A549): > 100 µM (inactive)
- GI50 (ACHN): > 100 µM (inactive)
- GI50 (CAKI-1): > 100 µM (inactive)
- GI50 (CCRF-CEM): > 100 µM (inactive)
- GI50 (COLO 205): > 100 µM (inactive)
- GI50 (DU-145): > 100 µM (inactive)
- GI50 (EKVX): > 100 µM (inactive)
- GI50 (HCC 2998): > 100 µM (inactive)
- GI50 (HCT-116): > 100 µM (inactive)
- GI50 (HCT-15): > 100 µM
- GI50 (HL-60): > 100 µM (inactive)
- GI50 (HOP-62): > 100 µM (inactive)
- GI50 (HOP-92): 35.7 µM (inactive)
- GI50 (HT-29): > 100 µM (inactive)
- GI50 (Hs-578T): 35.2 µM (inactive)
- GI50 (IGROV-1): > 100 µM (inactive)
- GI50 (K562): > 100 µM (inactive)
- GI50 (KM12): > 100 µM (inactive)
- GI50 (LOX IMVI): > 100 µM (inactive)
- GI50 (M14): > 100 µM (inactive)
- GI50 (MDA-MB-231): > 100 µM (inactive)
- GI50 (MDA-MB-435): > 100 µM (inactive)
- GI50 (MDA-N): > 100 µM (inactive)
- GI50 (MOLT-4): > 100 µM (inactive)
- GI50 (Malme-3M): > 100 µM (inactive)
- GI50 (NCI-H226): > 100 µM (inactive)
- GI50 (NCI-H23): > 100 µM (inactive)
- GI50 (NCI-H460): > 100 µM (inactive)
- GI50 (NCI-H522): > 100 µM (inactive)
- GI50 (NCI/ADR-RES): > 100 µM (inactive)
- GI50 (OVCAR-3): 61 µM (inactive)
- GI50 (OVCAR-4): > 100 µM (inactive)
- GI50 (OVCAR-5): > 100 µM (inactive)
- GI50 (OVCAR-8): > 100 µM (inactive)
- GI50 (PC-3): > 100 µM (inactive)
- GI50 (RPMI-8226): > 100 µM (inactive)
- GI50 (RXF 393): > 100 µM (inactive)
- GI50 (SF-268): > 100 µM (inactive)
- GI50 (SF-295): 38.8 µM (inactive)
- GI50 (SF-539): > 100 µM (inactive)
- GI50 (SK-MEL-28): > 100 µM (inactive)
- GI50 (SK-MEL-2): 82.2 µM (inactive)
- GI50 (SK-MEL-5): > 100 µM (inactive)
- GI50 (SK-OV-3): 73.8 µM (inactive)
- GI50 (SN12C): > 100 µM (inactive)
- GI50 (SNB-19): 50.5 µM (inactive)
- GI50 (SNB-75): 31.5 µM (inactive)
- GI50 (SR): > 100 µM (inactive)
- GI50 (SW-620): > 100 µM (inactive)
- GI50 (T47D): 47 µM (inactive)
- GI50 (TK-10): 47.2 µM (inactive)
- GI50 (U-251): 99.8 µM (inactive)
- GI50 (UACC-257): > 100 µM (inactive)
- GI50 (UACC-62): > 100 µM (inactive)
- GI50 (UO-31): > 100 µM (inactive)
